The values that follow come from ChEMBL document CHEMBL1152906, “Synthesis and evaluation of carbamate prodrugs of SQ109 as antituberculosis agents” (Bioorg Med Chem Lett, 2009).

Molecules are shown by their SMILES. “And” between values parts separate entries of the source, which are not always exact repeats. Equal entries are not always repeated.

The subject of series [1] is Rattus norvegicus. Briefly: Cmax in rat assessed as N-Geranyl-N0-(2-adamantyl)ethane-1,2-diamine level at 13 mg/kg, po. The series is classed as ADME, organism-based. Details: dose 13 mg/kg, route oral. The conditions noted are these: in vivo.
Series [2] has as its system Rattus norvegicus. Briefly: Tmax in rat assessed as N-Geranyl-N0-(2-adamantyl)ethane-1,2-diamine level at 13 mg/kg, po. The series is classed as ADME, organism-based. On the set-up: dose 13 mg/kg, route oral. The conditions noted are these: in vivo.
Series [3] concerns Rattus norvegicus. Briefly: Half life in rat assessed as N-Geranyl-N0-(2-adamantyl)ethane-1,2-diamine level at 13 mg/kg, po. The series is classed as ADME, organism-based. Details: dose 13 mg/kg, route oral. The conditions noted are these: in vivo.
In series [4] the test system is Rattus norvegicus. Briefly: Clearance in rat assessed as N-Geranyl-N0-(2-adamantyl)ethane-1,2-diamine level at 13 mg/kg, po. Type of series: ADME, organism-based. Details: dose 13 mg/kg, route oral. The conditions noted are these: in vivo.
In series [5] the test system is Rattus norvegicus. Briefly: AUC(0 to 24 hrs) in rat assessed as N-Geranyl-N0-(2-adamantyl)ethane-1,2-diamine level at 13 mg/kg, po. The conditions noted are these: in vivo. Details: time < 24 hr, dose 13 mg/kg, route oral. The series is classed as ADME, organism-based, Plasma.
Series [6] has as its system Rattus norvegicus. Briefly: Oral bioavailability in rat assessed as N-Geranyl-N0-(2-adamantyl)ethane-1,2-diamine level at 13 mg/kg. The conditions noted are these: in vivo. Type of series: ADME, organism-based.
For series [7], the system named is Lung. Briefly: Drug uptake in rat lung assessed as N-Geranyl-N0-(2-adamantyl)ethane-1,2-diamine level at 13 mg/kg, po after 4 hrs. Type of series: ADME, organism-based. Details: dose 13 mg/kg, route oral. The conditions noted are these: in vivo.
In series [8] the test system is Lung. Briefly: Drug uptake in rat lung assessed as N-Geranyl-N0-(2-adamantyl)ethane-1,2-diamine level at 13 mg/kg, po after 10 hrs. The series is classed as ADME, organism-based. On the set-up: dose 13 mg/kg, route oral. The conditions noted are these: in vivo.
Series [9] is described as follows: Ratio of drug level in rat lung to plasma assessed as N-Geranyl-N0-(2-adamantyl)ethane-1,2-diamine level at 13 mg/kg, po after 4 hrs. Details: dose 13 mg/kg, route oral. Type of series: ADME, organism-based. The conditions noted are these: other tissue.
A short description of series [10]: Stability of compound in Sorensens buffer at pH 7.4. The series is classed as physicochemical.
Series [11] in a line: Oral bioavailability in rat. The series is classed as ADME, organism-based. The conditions noted are these: in vivo.
The nature of series [12]: Oral bioavailability in dog. The conditions noted are these: in vivo. Type of series: ADME, organism-based, Canis lupus familiaris.
A short description of series [13]: Cmax in rat at 1.5 mg/kg, iv. The series is classed as ADME, organism-based. Details: dose 1.5 mg/kg, route intravenous. The conditions noted are these: in vivo.
The nature of series [14]: Half life in rat at 1.5 mg/kg, iv. Type of series: ADME, organism-based. Details: dose 1.5 mg/kg, route intravenous. The conditions noted are these: in vivo.
Series [15] can be described thus: Clearance in rat at 1.5 mg/kg, iv. On the set-up: dose 1.5 mg/kg, route intravenous. The series is classed as ADME, organism-based. The conditions noted are these: in vivo.
Series [16] is described as follows: AUC(0 to 24 hrs) in rat at 1.5 mg/kg, iv. The conditions noted are these: plasma. The series is classed as ADME, organism-based. On the set-up: time < 24 hr, dose 1.5 mg/kg, route intravenous.
Series [17] in a line: Cmax in rat at 13 mg/kg, po. Type of series: ADME, organism-based. On the set-up: dose 13 mg/kg, route oral. The conditions noted are these: in vivo.
The nature of series [18]: Tmax in rat at 13 mg/kg, po. The conditions noted are these: in vivo. Details: dose 13 mg/kg, route oral. Type of series: ADME, organism-based.
Series [19] in a line: Half life in rat at 13 mg/kg, po. The series is classed as ADME, organism-based. On the set-up: dose 13 mg/kg, route oral. The conditions noted are these: in vivo.
Series [20] in a line: Clearance in rat at 13 mg/kg, po. The conditions noted are these: in vivo. Details: dose 13 mg/kg, route oral. Type of series: ADME, organism-based.
Series [21] is described as follows: AUC(0 to 24 hrs) in rat at 13 mg/kg, po. The conditions noted are these: plasma. On the set-up: time < 24 hr, dose 13 mg/kg, route oral. Type of series: ADME, organism-based.
Series [22] can be described thus: Oral bioavailability in rat at 13 mg/kg. The series is classed as ADME, organism-based. The conditions noted are these: in vivo.

The Cmax is the maximum level reached in the sampled fluid or tissue. Usually Tmax stands for the time at which the peak concentration occurs. In general, AUC refers to concentration integrated over time. For the compound `CC(C)=CCC/C(C)=C/CN(CCNC1C2CC3CC(C2)CC1C3)C(=O)OCOC(=O)C(C)C.O=C(O)/C=C\C(=O)O` (centres undefined), the Cmax in series [1] was found to be 1309.3 ng/mL. Further, the Tmax in [2] was 1 h. In addition, the t1/2 in [3] was 4.58 h. Also, the CL in series [4] amounted to 41.5 mL/min/kg. In addition, in [5], the area under the curve (AUC) was determined as 5441.2 ng·h/mL. Besides, the F in series [6] was 91.4%. The results for the Drug uptake in [7] and in series [8] were 35.08 µg/g and 29.03 µg/g, respectively. In addition, in series [9], the “fold change (FC)” value is 76 and 60.
On to `CC(C)=CCC/C(C)=C/CN(CCNC1C2CC3CC(C2)CC1C3)C(=O)OC(C)OC(=O)C(C)(C)C.O=C(O)/C=C\C(=O)O` (centres undefined), for which the Stability entry in series [10] is “Unstable”.
In the case of `CC(C)=CCC/C(C)=C/CN(CCNC1C2CC3CC(C2)CC1C3)C(=O)OC(C)OC(=O)C(C)C.O=C(O)/C=C\C(=O)O` (centres undefined), in [10], the Stability result was “Unstable”.
For the compound `CC(C)=CCC/C(C)=C/CN(CCNC1C2CC3CC(C2)CC1C3)C(=O)OCOC(=O)C(C)(C)C.O=C(O)/C=C\C(=O)O` (centres undefined), the Cmax in series [1] turned out to be 585.6 ng/mL. For the same compound, in series [2], the Tmax is 1.4 h. Further, the t1/2 in [3] turned out to be 5.6 h. For the same compound, the CL in series [4] stood at 50 mL/min/kg. For the same compound, the area under the curve (AUC) in series [5] was found to be 4224.8 ng·h/mL. For the same compound, the F in [6] was 72.6%.
One may read the bioavailability as dose-corrected exposure relative to a reference, in per cent. High values mean good availability, low ones poor availability. One may read the half-life as the time in which the quantity being followed falls by half. Read a low half-life as rapid decline. The clearance is the volume of plasma or blood freed of the substance per unit of time. Read a high clearance as a high capacity for elimination. The term AUC(0-t) denotes the area under the concentration-time curve up to a stated or last time point. One may read the CL/F as clearance divided by bioavailability, as obtained after extravascular dosing. `CC(C)=CCC/C(C)=C/CNCCNC1C2CC3CC(C2)CC1C3` (centres undefined) [SQ109]: the bioavailability in [11] was determined as 12%; in [12], 3.8%; in series [22], 21.9%. Also, the maximum concentration (Cmax) in series [13] was found to be 889 ng/mL; in series [17], 499 ng/mL. The half-life was 5.06 h in series [14] and 3.71 h in series [19]. For the same compound, the clearance in series [15] is 17.5 mL/min/kg. Also, the AUC(0-t) at 24 h in series [16] was 1230 ng·h/mL; in series [21], 2330 ng·h/mL. Further, the Tmax in series [18] is 0.75 h. The same compound gave a CL/F in series [20] of 82.3 mL/min/kg.
